ChEMBL document CHEMBL2073941, “TP-search Transporter Database” (Gastroenterology, 1994)

Target: T1, OAT1 (Solute carrier family 22 member 6) (Homo sapiens, UniProt Q4U2R8)
T1 sequence (Q4U2R8 whole entry): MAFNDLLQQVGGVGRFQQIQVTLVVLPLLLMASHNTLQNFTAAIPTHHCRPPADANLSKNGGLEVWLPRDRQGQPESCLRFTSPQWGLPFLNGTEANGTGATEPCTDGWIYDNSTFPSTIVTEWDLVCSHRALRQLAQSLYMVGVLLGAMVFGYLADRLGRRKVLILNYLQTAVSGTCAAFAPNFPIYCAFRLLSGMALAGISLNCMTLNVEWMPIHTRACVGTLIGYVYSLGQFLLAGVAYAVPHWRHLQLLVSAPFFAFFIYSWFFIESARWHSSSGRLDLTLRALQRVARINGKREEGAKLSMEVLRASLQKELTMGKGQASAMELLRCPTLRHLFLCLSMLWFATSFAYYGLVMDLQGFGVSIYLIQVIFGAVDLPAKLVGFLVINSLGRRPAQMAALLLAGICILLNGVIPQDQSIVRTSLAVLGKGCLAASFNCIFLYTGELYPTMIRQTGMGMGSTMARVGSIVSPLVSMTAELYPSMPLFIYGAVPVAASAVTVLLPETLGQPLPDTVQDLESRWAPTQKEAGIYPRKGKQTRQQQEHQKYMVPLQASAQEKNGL
Assay: TP_TRANSPORTER: inhibition of Urate uptake (Urate: 300 uM, DIDS: 2000 uM) in OAT1-expressing S2 cells
Format: functional, cell-based
Design: scale not given: the % may be the effect or the level left
Details: S2 cells that express OAT1, probe urate (300 uM); read-out: Activity

- activity at 2000 µM: 64.2%
Compound: O=S(=O)(O)c1cc(N=C=S)ccc1/C=C/c1ccc(NC=S)cc1S(=O)(=O)O
